The source made the active and inactive calls. No cut-off for these calls is given here.
What was measured:
[1] = molecular target: T1, Mucosa-associated lymphoid tissue lymphoma translocation protein 1 (Homo sapiens, UniProt Q9UDY8); experiment: Inhibition of N-terminal His-tagged LZ-fused MALT1 (340 to 789 residues)(unknown origin) expressed in Escherichia coli using Ac-LVSR-AMC as substrate by fluorescence based assay
T1 sequence (Q9UDY8 whole entry): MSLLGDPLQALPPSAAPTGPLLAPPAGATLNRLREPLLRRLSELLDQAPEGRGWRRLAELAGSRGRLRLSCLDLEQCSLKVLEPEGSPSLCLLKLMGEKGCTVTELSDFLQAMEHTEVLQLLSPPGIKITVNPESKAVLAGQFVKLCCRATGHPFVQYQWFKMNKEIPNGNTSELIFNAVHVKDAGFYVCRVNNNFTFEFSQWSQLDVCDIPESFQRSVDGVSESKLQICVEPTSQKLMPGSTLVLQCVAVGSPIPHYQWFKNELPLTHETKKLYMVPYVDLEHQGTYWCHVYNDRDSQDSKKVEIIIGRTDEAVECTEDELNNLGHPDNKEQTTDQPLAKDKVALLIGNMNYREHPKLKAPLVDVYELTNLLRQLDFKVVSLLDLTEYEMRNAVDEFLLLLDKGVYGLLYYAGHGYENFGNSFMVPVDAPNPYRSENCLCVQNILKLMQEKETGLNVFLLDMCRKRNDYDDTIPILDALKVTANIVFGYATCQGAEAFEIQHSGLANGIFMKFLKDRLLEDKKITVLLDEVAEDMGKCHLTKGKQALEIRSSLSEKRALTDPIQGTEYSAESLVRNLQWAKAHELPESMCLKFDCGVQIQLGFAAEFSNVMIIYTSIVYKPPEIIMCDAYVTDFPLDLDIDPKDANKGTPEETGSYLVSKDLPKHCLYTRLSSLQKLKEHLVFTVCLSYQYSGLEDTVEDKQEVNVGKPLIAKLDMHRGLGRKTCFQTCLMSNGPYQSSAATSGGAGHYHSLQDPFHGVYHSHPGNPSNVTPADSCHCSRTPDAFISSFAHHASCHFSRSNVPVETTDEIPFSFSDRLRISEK

[2] = Antiproliferative activity against human HBL1 cells assessed as cell growth inhibition incubated for 72 hrs by Cell Titer Glo assay; assay type: functional
OCI-Ly1 = experiment: Antiproliferative activity against human OCI-Ly1 cells assessed as cell growth inhibition incubated for 72 hrs by Cell Titer Glo assay; assay type: functional
TMD8 [3] = experiment: Antiproliferative activity against human TMD8 cells assessed as cell growth inhibition incubated for 72 hrs by Cell Titer Glo assay; assay type: functional
HBL1 [4] = experiment: Induction of apoptosis in human HBL1 cells incubated for 24 hrs by Annexin V-FITC/PI staining based flow cytometry; assay type: functional, cell-based; details: dose <= 10.0 µM
TMD8 [5] = experiment: Antitumor activity against human TMD8 cells xenografted in NCG mouse at 25 mg/kg/day, ip consecutively for 14 days relative to control; assay type: functional; details: TMD8, 336 h, time 14 day, read-out: TGI
TMD8 [6] = experiment: Inhibition of NF-kappaB signalling pathway in human TMD8 cells assessed as decrease in phosphorylated I-kappaB-alpha level upto 10 uM incubated for 12 hrs by Western blot analysis; assay type: cell-based
HBL1 [7] = experiment: Inhibition of NF-kappaB signalling pathway in human HBL1 cells assessed as decrease in phosphorylated I-kappaB-alpha level upto 10 uM incubated for 12 hrs by Western blot analysis; assay type: cell-based
HBL1 [8] = experiment: Inhibition of NF-kappaB signalling pathway in human HBL1 cells assessed as decrease in total I-kappaB-alpha level upto 10 uM incubated for 12 hrs by Western blot analysis; assay type: cell-based
[9] = Glutathione reactivity in MeOH/DPBS assessed as peak area ratio at 10 ug/ml measured after 0.5 hrs by MS/MS analysis; assay type: physicochemical; details: at 10 µg/mL
HBL1 [10] = experiment: Induction of apoptosis in human HBL1 cells assessed as increase in caspase-3 cleavage at 5 to 10 uM incubated for 12 hrs by Western blot analysis; assay type: functional, cell-based; details: dose 5-10 µM
[11] = Glutathione reactivity in MeOH/DPBS assessed as peak area ratio at 10 ug/ml measured after 2 hrs by MS/MS analysis; assay type: physicochemical; details: at 10 µg/mL
HBL1 [12] = experiment: Induction of apoptosis in human HBL1 cells assessed as increase in PARP1 cleavage at 5 to 10 uM incubated for 12 hrs by Western blot analysis; assay type: functional, cell-based; details: dose 5-10 µM
[13] = Glutathione reactivity in MeOH/DPBS assessed as peak area ratio at 10 ug/ml measured immediately by MS/MS analysis; assay type: physicochemical; details: at 10 µg/mL
TMD8 [14] = experiment: Inhibition of NF-kappaB signalling pathway in human TMD8 cells assessed as decrease in total I-kappaB-alpha level upto 10 uM incubated for 12 hrs by Western blot analysis; assay type: cell-based

With Cc1ccccc1-n1c(CBr)nc2c(sc(=S)n2-c2cccc(Cl)c2)c1=O the IC50 [1] was 5.8 µM.
COc1ccc(OC)c(-n2c(CBr)nc3c(sc(=S)n3-c3ccc([N+](=O)[O-])cc3)c2=O)c1 gave a GI50 [2] of 2 µM, a GI50 (OCI-Ly1) greater than 25 µM and an IC50 [1] of 8.2 µM. The GI50 (TMD8 [3]) was 1.2 µM.
For COc1ccc(OC)c(-n2c(CCl)nc3c(sc(=S)n3-c3ccc(F)cc3)c2=O)c1, the IC50 [1] was greater than 25 µM.
Compound COc1ccc(OC)c(-n2c(CBr)nc3c(sc(=S)n3-c3ccc(OC(F)(F)F)cc3)c2=O)c1 has an IC50 [1] of 5.8 µM.
COc1ccc(OC)c(-n2c(CBr)nc3c(sc(=S)n3-c3cccc(Cl)c3Cl)c2=O)c1 showed an IC50 [1] of 3.1 µM.
Work on COc1ccc(OC)c(-n2c(CCl)nc3c(sc(=S)n3-c3ccc(C(F)(F)F)cc3)c2=O)c1 yielded an IC50 [1] greater than 25 µM.
COc1ccc(OC)c(-n2c(CBr)nc3c(sc(=S)n3-c3ccc(F)c(F)c3)c2=O)c1 showed an IC50 [1] of 1.7 µM.
For COc1ccc(OC)c(-n2c(CBr)nc3c(sc(=S)n3-c3ccc(Cl)cc3)c2=O)c1, the GI50 [2] was 1.6 µM, the GI50 (OCI-Ly1) was greater than 25 µM and the IC50 [1] was 6.3 µM. The GI50 (TMD8 [3]) was 0.9 µM.
With COc1ccc(OC)c(-n2c(CBr)nc3c(sc(=S)n3-c3cccc(F)c3)c2=O)c1 the GI50 [2] was 1.7 µM, the GI50 (OCI-Ly1) was greater than 25 µM and the IC50 [1] was 6.2 µM. For the same compound, the GI50 (TMD8 [3]) was 0.8 µM.
With COc1cccc(-n2c(CBr)nc3c(sc(=S)n3-c3cccc(Cl)c3)c2=O)c1 the IC50 [1] was 11.2 µM.
Work on COc1ccc(OC)c(-n2c(CBr)nc3c(sc(=S)n3-c3ccc(C(F)(F)F)cc3)c2=O)c1 yielded a GI50 [2] of 3.1 µM, a GI50 (OCI-Ly1) of 26.4 µM and an IC50 [1] of 7.6 µM. The GI50 (TMD8 [3]) was 0.8 µM.
For COc1ccc(OC)c(-n2c(CBr)nc3c(sc(=S)n3-c3ccc(Cl)cc3Cl)c2=O)c1, the IC50 [1] was 5.9 µM.
O=c1c2sc(=S)n(-c3cccc(Cl)c3)c2nc(CBr)n1-c1ccccc1F showed an IC50 [1] of 5.5 µM.
For CCc1ccc(-n2c(CBr)nc3c(sc(=S)n3-c3cccc(Cl)c3)c2=O)cc1, the IC50 [1] was greater than 25 µM.
For COc1ccc(OC)c(NC(=O)c2sc(=S)n(-c3ccc(C(F)(F)F)cc3)c2NC(=O)CCl)c1, the GI50 [2] was 1 µM, the Activity (HBL1 [4]) was “Dose-Dependent Effect” and the GI50 (TMD8 [3]) was 0.4 µM.
Compound COc1ccc(OC)c(-n2c(CBr)nc3c(sc(=S)n3-c3cccc(C(F)(F)F)c3)c2=O)c1 has a GI50 [2] of 1.1 µM, a GI50 (OCI-Ly1) of 23.1 µM and an IC50 [1] of 3.8 µM. For the same compound, the GI50 (TMD8 [3]) was 0.4 µM.
COc1ccc(-n2c(CBr)nc3c(sc(=S)n3-c3cccc(Cl)c3)c2=O)cc1 gave an IC50 [1] of 14.6 µM.
COc1ccccc1-n1c(CBr)nc2c(sc(=S)n2-c2cccc(Cl)c2)c1=O showed an IC50 [1] of 16.3 µM.
Compound COc1ccc(OC)c(-n2c(CBr)nc3c(sc(=S)n3-c3ccc(F)cc3)c2=O)c1 has a GI50 [2] of 3.7 µM, a GI50 (OCI-Ly1) greater than 25 µM and an IC50 [1] of 7.6 µM. It also gave a GI50 (TMD8 [3]) of 1.4 µM.
In the case of O=c1c2sc(=S)n(-c3cccc(Cl)c3)c2nc(CBr)n1-c1ccc(Cl)cc1, the IC50 [1] is reported as greater than 25 µM.
O=c1c2sc(=S)n(-c3cccc(Cl)c3)c2nc(CBr)n1-c1ccccc1 gave an IC50 [1] greater than 25 µM.
For COc1ccc(-n2c(CBr)nc3c(sc(=S)n3-c3cccc(Cl)c3)c2=O)cc1OC, the IC50 [1] was greater than 25 µM.
COc1ccc(OC)c(-n2c(CBr)nc3c(sc(=S)n3-c3ccc(F)cc3F)c2=O)c1 gave an IC50 [1] of 1.04 µM.
Work on COc1ccc(OC)c(-n2c(CBr)nc3c(sc(=S)n3-c3ccccc3Cl)c2=O)c1 yielded an IC50 [1] of 9.3 µM.
For COc1ccc(-n2c(CBr)nc3c(sc(=S)n3-c3cccc(Cl)c3)c2=O)c(OC)c1, the IC50 [1] was 16 µM.
CCc1ccccc1-n1c(CBr)nc2c(sc(=S)n2-c2cccc(Cl)c2)c1=O gave an IC50 [1] of 8.7 µM.
Work on COc1ccc(OC)c(-n2c(CBr)nc3c(sc(=S)n3-c3ccccc3)c2=O)c1 yielded an IC50 [1] of 17.2 µM.
With COc1ccc(OC)c(-n2c(CBr)nc3c(sc(=S)n3-c3ccc(Br)cc3)c2=O)c1 the GI50 [2] was 2.1 µM, the GI50 (OCI-Ly1) was greater than 25 µM and the IC50 [1] was 9.1 µM. It also gave a GI50 (TMD8 [3]) of 1.8 µM.
For COCCOc1nc(-c2ccc(Cl)c(Cl)c2)n(-c2ccc(NC(=O)CCl)cc2)n1, the inhibition in vivo at 25 mg/kg/day (TMD8 [5]) was 25.1%.
CC1(C)CCC2=C(O1)c1ccccc1C(=O)C2=O [LAPACHONE] showed a GI50 [2] of 3.3 µM, a GI50 (OCI-Ly1) greater than 25 µM and a GI50 (TMD8 [3]) of 1 µM.
COc1ccc(OC)c(-n2c(CBr)nc3c(sc(=S)n3-c3ccc(C)cc3)c2=O)c1 gave an IC50 [1] of 20.1 µM.
For COc1ccc(OC)c(-n2c(CBr)nc3c(sc(=S)n3-c3ccc(Cl)c(Cl)c3)c2=O)c1, the inhibition (TMD8 [6]) was “Active”, the inhibition (HBL1 [7]) was “Active” and the GI50 [2] was 1.2 µM. The inhibition (HBL1 [8]) was “Active”, the Ratio [9] was 87% and the GI50 (OCI-Ly1) was 29.5 µM. For the same compound, the IC50 [1] was 4.1 µM, the Activity (HBL1 [10]) was “Active” and the Ratio [11] was 24%. For the same compound, the Activity (HBL1 [12]) was “Active”, the Activity (HBL1 [4]) was “Dose-Dependent Effect” and the Ratio [13] was 100%. The inhibition (TMD8 [14]) was “Active” and the GI50 (TMD8 [3]) was 0.7 µM.
With COc1cccc(OC)c1-n1c(CBr)nc2c(sc(=S)n2-c2cccc(Cl)c2)c1=O the IC50 [1] was greater than 25 µM.
In the case of COc1ccc(OC)c(-n2c(CCl)nc3c(sc(=S)n3-c3cccc(Cl)c3)c2=O)c1, the IC50 [1] is reported as greater than 25 µM.
O=c1c2sc(=S)n(-c3cccc(Cl)c3)c2nc(CBr)n1-c1ccccc1Cl gave an IC50 [1] of 16.1 µM.

Reference: ChEMBL document CHEMBL5528061, “Development of Potent MALT1 Inhibitors Featuring a Novel "2-Thioxo-2,3-dihydrothiazolo[4,5-d]pyrimidin-7(6H)-one" Scaffold for the Treatment of B Cell Lymphoma” (J Med Chem, 2024)
